Data: US20080261994A1, “CYCLOPROPANE COMPOUNDS AND PHARMACEUTICAL USE THEREOF” (Japan Tobacco Inc., priority 2003, published 2008)
Read-outs that look alike come from different tables or passages of the source.

Columns and labels:
Type in all cases: biochemical
MMP-1 = target: T1, MMP-1 (Homo sapiens, UniProt P03956); assay: MMP-1 inhibitory action (Type I collagen Activity Measurement kit, FITC-labeled collagen type I)
T1 sequence (P03956 100-469): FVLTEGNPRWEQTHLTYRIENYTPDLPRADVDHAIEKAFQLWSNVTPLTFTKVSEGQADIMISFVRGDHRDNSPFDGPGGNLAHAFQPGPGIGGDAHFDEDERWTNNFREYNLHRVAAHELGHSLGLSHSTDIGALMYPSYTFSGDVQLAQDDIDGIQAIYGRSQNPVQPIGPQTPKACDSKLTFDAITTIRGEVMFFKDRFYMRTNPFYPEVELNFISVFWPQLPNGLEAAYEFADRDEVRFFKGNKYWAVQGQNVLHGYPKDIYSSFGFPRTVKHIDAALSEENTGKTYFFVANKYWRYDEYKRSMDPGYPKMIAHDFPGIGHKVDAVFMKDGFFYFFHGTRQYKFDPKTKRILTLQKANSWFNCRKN

Recombinant Human MMP-13 = target: T2, Recombinant Human MMP-13 (Homo sapiens, UniProt P45452); assay: MMP-13 inhibitory activity (MMP-13 specific fluorescent substrate with quencher)
T2 construct: purchased R&D systems 511-MM
Procedure: Inhibitory activity of tested compounds on MMP-13 was measured using MMP-13 specific fluorescent substrate with quencher.
The enzyme and substrate were diluted with Tris-HCl buffer, and test compounds were diluted with dimethyl sulfoxide (DMSO).
Test compounds and the enzyme (Recombinant Human MMP-13: R&D systems, 511-MM) were added into 96-well plate. The reaction was initiated by adding synthetic substrate (7-MCA-Pro-CHA-Gly-NVal-His-Ala-DPA: enzyme systems products, Met-06) into the plate. After incubation at 25° C. for 1 h, the reaction was terminated by addition of reaction terminating solution containing acetic acid. Fluorescence intensity of each well was measured (Ex: 325 nm, […] 405 nm) and the MMP-13 inhibitory activity of the compound in each well (%) was calculated based on the values of enzyme-free well and inhibitor-free well. The inhibitory activity of the compound was represented as IC50 (μM).

aggrecanase-1 = target: T3, aggrecanase-1 (Homo sapiens, UniProt O75173); assay: Aggrecanase-1 inhibitory action (Particle Assay, GAG release from aggrecan-containing polyacrylamide particles)
T3 sequence (O75173 213-837): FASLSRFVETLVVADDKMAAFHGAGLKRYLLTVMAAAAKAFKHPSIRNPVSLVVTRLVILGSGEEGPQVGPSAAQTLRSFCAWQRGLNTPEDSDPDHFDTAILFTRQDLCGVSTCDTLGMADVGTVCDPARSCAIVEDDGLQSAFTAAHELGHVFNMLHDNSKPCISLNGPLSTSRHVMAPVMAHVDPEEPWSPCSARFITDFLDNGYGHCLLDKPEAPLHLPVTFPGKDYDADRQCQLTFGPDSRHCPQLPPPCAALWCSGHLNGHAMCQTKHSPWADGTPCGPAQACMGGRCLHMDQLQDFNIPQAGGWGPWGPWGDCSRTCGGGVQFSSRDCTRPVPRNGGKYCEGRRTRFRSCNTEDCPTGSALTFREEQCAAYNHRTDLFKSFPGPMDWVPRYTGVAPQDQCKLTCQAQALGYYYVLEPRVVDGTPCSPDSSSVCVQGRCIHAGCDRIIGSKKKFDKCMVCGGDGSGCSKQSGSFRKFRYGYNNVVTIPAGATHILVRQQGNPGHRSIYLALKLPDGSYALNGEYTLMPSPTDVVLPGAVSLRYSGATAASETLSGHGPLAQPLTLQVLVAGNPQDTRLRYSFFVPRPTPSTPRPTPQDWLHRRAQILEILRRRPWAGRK
Summary of the method: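 Readout was dimethylmethylene blue absorbance (595 nm) of glycosaminoglycan liberated into supernatant, calibrated with whale chondroitin sulfate. Substrate was aggrecan in polyacrylamide particles, digested 15 h at 37° C in Tris-HCl; TC50 (μM) derived from inhibition relative to no-enzyme and no-inhibitor controls.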

[1] = MMP-1 inhibitory action, FITC-labeled collagen type I, 37° C. for 3 hr, read-out: IC50 MMP1 (Experimental Example 2)
[2] = Recombinant Human MMP-13, fluorescent substrate, 25° C. for 1 h, read-out: IC50 MMP13 (Experimental Example 3)
[3] = aggrecanase-1 inhibitory action, read-out: IC50 AG1 (Experimental Example 1)
[4] = Experimental Example 2, read-out: IC50 MMP1
[5] = Experimental Example 3, read-out: IC50 MMP13
[6] = Experimental Example 1, read-out: IC50 AG1

Row | Compound | IC50 (MMP-1; [1]) | IC50 (Recombinant Human MMP-13; [2]) | IC50 (aggrecanase-1; [3]) | IC50 (MMP-1; [4]) | IC50 (Recombinant Human MMP-13; [5]) | IC50 (aggrecanase-1; [6])
1 | O=C1COCCN1CC1(c2ccccc2)CC1(NS(=O)(=O)c1ccc(-c2ccc(Cl)cc2)s1)C(=O)O (stereo not drawn) [Example 2-400] | – | – | – | ≥ 1 µM | < 1 µM | ≥ 1 µM
2 | O=C(O)C1(NS(=O)(=O)c2ccc(-c3ccc(Cl)cc3)s2)C2Cc3ccccc3C21 (stereo not drawn) [Example 2-431] | – | – | – | ≥ 1 µM | < 1 µM | < 1 µM
3 | CC1[C@H](c2ccccc2)[C@]1(NS(=O)(=O)c1ccc(-c2cc(C(F)(F)F)on2)s1)C(N)=O (stereo partly drawn) [Example 2-296] | – | – | – | ≥ 10 µM | ≥ 1 µM | ≥ 1 µM
4 | CN(C)C(=O)CCc1ccc([C@H]2C[C@@]2(NS(=O)(=O)c2ccc(-c3cc(C(F)(F)F)on3)s2)C(=O)O)cc1 [Example 2-282] | – | – | – | < 1 µM | < 0.1 µM | < 0.1 µM
5 | CC1(c2ccc(Cl)cc2)CC1(NS(=O)(=O)c1ccc(-c2cc(C(F)(F)F)on2)s1)C(=O)O (stereo not drawn) [Example 2-608] | – | – | – | < 1 µM | < 1 µM | < 0.1 µM
6 | Cc1nc2cc(N3CCN(S(=O)(=O)N[C@@]4(C(=O)O)C(C)[C@@H]4c4ccccc4)CC3)ccc2s1 (stereo partly drawn) [Example 2-483] | – | – | – | ≥ 10 µM | ≥ 1 µM | ≥ 1 µM
7 | C[C@]1(c2ccccc2)C[C@@]1(NS(=O)(=O)c1ccc(-c2ccc(Cl)c(CO)c2)s1)C(=O)O [Example 2-564] | – | – | – | ≥ 1 µM | < 0.1 µM | < 0.1 µM
8 | C[C@]1(c2ccccc2)C[C@@]1(NS(=O)(=O)c1ccc(-c2ncc(Br)cn2)s1)C(=O)O [Example 2-414] | – | – | – | ≥ 1 µM | < 1 µM | < 1 µM

Results, then the compound that gave them:

Row | IC50 (MMP-1; [1]) | IC50 (Recombinant Human MMP-13; [2]) | IC50 (aggrecanase-1; [3]) | IC50 (MMP-1; [4]) | IC50 (Recombinant Human MMP-13; [5]) | IC50 (aggrecanase-1; [6]) | Compound
9 | ≥ 1 µM | < 0.1 µM | < 0.1 µM | – | – | – | O=C(O)C1(NS(=O)(=O)c2ccc(-c3ccc(Cl)cc3)s2)CC1c1cccc(NS(=O)(=O)C(F)(F)F)c1 (stereo not drawn) [Example 1-132]
10 | – | – | – | ≥ 1 µM | < 0.1 µM | < 1 µM | O=C(O)C1(NS(=O)(=O)c2ccc(-c3cc(C(F)(F)F)on3)s2)CC1c1cccc(CO)c1 (stereo not drawn) [Example 2-283]
11 | – | – | – | ≥ 1 µM | < 1 µM | < 0.1 µM | CC1[C@H](c2ccccc2)[C@]1(NS(=O)(=O)c1ccc(-c2cc(C(F)(F)F)no2)s1)C(=O)O (stereo partly drawn) [Example 2-338]
12 | ≥ 1 µM | < 0.1 µM | < 0.1 µM | – | – | – | O=C(O)C1(NS(=O)(=O)c2ccc(-c3ccc(Cl)cn3)s2)CC1c1ccccc1CO (stereo not drawn) [Example 2-63]
13 | – | – | – | ≥ 10 µM | ≥ 1 µM | ≥ 1 µM | O=C(O)[C@]1(NS(=O)(=O)c2ccc(-n3cc(Br)cn3)s2)C[C@@H]1c1ccccc1 [Example 2-605]
14 | – | – | – | ≥ 1 µM | < 1 µM | < 1 µM | CC1[C@H](c2ccccc2)[C@]1(NS(=O)(=O)c1ccc(-n2ccc(C(F)(F)F)n2)s1)C(=O)O (stereo partly drawn) [Example 2-514]
15 | ≥ 10 µM | ≥ 1 µM | ≥ 10 µM | – | – | – | O=C(O)[C@]1(NS(=O)(=O)/C=C/c2ccc(C(F)(F)F)cc2)C[C@@H]1c1ccccc1 [Example 2-161]
16 | – | – | – | < 1 µM | < 0.1 µM | ≥ 1 µM | C[C@]1(c2ccccc2)C[C@@]1(NS(=O)(=O)c1ccc(-n2cc(C(F)(F)F)cn2)cc1)C(=O)O [Example 2-506]
17 | ≥ 10 µM | ≥ 10 µM | ≥ 1 µM | – | – | – | CC(C)(C)OC(=O)N1CC=C(c2ccc(S(=O)(=O)N[C@@]3(C(=O)O)C[C@@H]3c3ccccc3)s2)CC1 [Example 2, 4-[5-((1S,2R)-1-carboxy-2-phenyl-cyclopropanesulfamoyl)-thiophene-2-yl]-3,6-dihydro-2H-pyridin-1-carboxylic acid t-butyl ester]
18 | ≥ 1 µM | < 1 µM | < 1 µM | – | – | – | CN(C)c1cccc(C2CC2(NS(=O)(=O)c2ccc(-c3cc(C(F)(F)F)on3)s2)C(=O)O)c1 (stereo not drawn) [Example 2-228]
